Results reported in US11179396B2, “Heterocyclic compounds as antibacterials” (Janssen Sciences Ireland Unlimited Company, priority 2016, dated 2021).
≈ marks a conversion by molar mass, not a printed value.

Tested on: Mycobacterium tuberculosis strain EH 4.0 (361.269)
Assay: Test 4: resazurin growth inhibition assay, M. tuberculosis strain EH 4.0
Assay type: cell-based
Conditions: read-out: pIC50 (converted)
Text: Test 4 (See Also Test 1 Above; in this Test a Different Strain of Mycobacterium tuberculosis Strain is Employed)
Appropriate solutions of experimental and reference compounds were made in 96 well plates with 7H9 medium. Samples of Mycobacterium tuberculosis strain EH 4.0 (361.269) were taken from cultures in stationary growth phase. These were first diluted to obtain an optical density of 0.3 at 600 nm wavelength and then diluted 1/100, resulting in an inoculum of approximately 5×10 exp5 colony forming units per well. Plates were incubated at 37° C. in plastic bags to prevent evaporation. After 7 days, resazurin was added to all wells. Two days later, fluorescence was measured on a Gemini EM Microplate Reader with 543 nm excitation and 590 nm emission wavelengths and MIC50 and/or pIC50 values (or the like, e.g. IC50, IC90, pIC90, etc) were (or may be) calculated. pIC50 values may be recorded below in μg/mL.

First: CCc1nc2ccc(Cl)cn2c1C(=O)NCc1ccc(N2CC3CC(F)CC3C2)cc1 (stereo not drawn) [Cpd 1]
Second: CCc1nc2ncc(Cl)cn2c1C(=O)NCc1ccc(N2CC3CC(F)CC3C2)cc1 (stereo not drawn) [Cpd 4]
The IC50 of the first is 2.8-fold lower: 39.8 nM for the first, 112 nM for the second.

First: CCc1nc2sc(C)cn2c1C(=O)NCc1ccc(N2CC3CC(F)CC3C2)cc1 (stereo not drawn) [Cpd 2]
Second: CCc1nc2sc(C)cn2c1C(=O)NCc1ccc(N2CC3C(C2)C3C(F)(F)F)cc1 (stereo not drawn) [Cpd 7]
The IC50 of the first is 1.6-fold higher: 50.1 nM for the first, 31.6 nM for the second.

Compared with `CCc1nc2n(c1C(=O)NCc1ccc(N3CC4CC(F)CC4C3)cc1)CCCC2` (stereo not drawn) [Cpd 3], `Cc1nn2ccccc2c1C(=O)NCc1ccc(N2C[C@H]3C[C@H](F)C[C@H]3C2)cc1` [Cpd 8] is 11-fold higher in IC50: 100 nM for the first, 1120 nM for the second.

Work on `CCc1nc2ncc(Cl)cn2c1C(=O)NCc1ccc(N2C[C@@H]3CC(F)(F)C[C@@H]3C2)cc1` [Cpd 9] yielded an IC50 of 15.8 nM.

Tested on: M. tuberculosis H37Rv
Assay: not given
Conditions: strain M. tuberculosis H37Rv, inside macrophages; cited from earlier work

In the case of `CCc1nc2ccc(Cl)cn2c1C(=O)NCc1ccc(N2CCC(c3ccc(OC(F)(F)F)cc3)CC2)cc1` [Compound Q203], the MIC50 is given as 0.28 nM (≈ 0.156 ng/mL).

Tested on: M. tuberculosis
Assay: not given
Conditions: cited from earlier work

For `CCc1nc2ccc(Cl)cn2c1C(=O)NCc1ccc(N2CCC(c3ccc(OC(F)(F)F)cc3)CC2)cc1` [Compound Q203], the “activity against both replicating and non-replicating bacteria” value is listed as “highly active”.
